According to US6127541A, “Imidazoquinazoline derivatives” (Kyowa Hakko Kogyo Co., Ltd., priority 1996, dated 2000):
Counter-ions that a name gives are not always drawn.

Columns and labels:
rats [1] = assay: Hypotensive effect in anesthetized rats (mean blood pressure); format: in vivo, male Sprague-Dawley rat; conditions: rat, 10 mg/kg, i.d. N = 2; from value before administration (100%)
Method: Test Example 2. The Hypotensive Effect in Rats
After a male Spraque-Dawley rat (two […]/group) anesthetized with urethane was fixed in the supine position, a cannula was inserted into trachea and the rat was artificially ventilated under the conditions of a tidal volume of […] and 60 breathes/min. The carotid artery and the duodenum were cannulated for measuring blood pressure and administering a drug, respectively. The drug was dissolved in distilled water and administered duodenally using the above cannula. Mean blood pressure (mBP) until […] after the drug-administration was measured and the maximum lowering rate (%) from the value before the drug-administration (100%) was determined. No change of mBP was observed during 30 minutes in case of administrating distilled water.

[2] = molecular target: T1, PDE V (cGMP-specific PDE) (Canis lupus familiaris, UniProt O77746); assay: Inhibitory activity on PDE V derived from canine tracheal smooth muscle; format: biochemical; conditions: Compound conc.: 1 nM; substrate 1.0 μM [3H]cGMP; read-out: PDE V inhibitory activity, Inhibition rate (%)
T1 construct: purified from canine tracheal smooth muscle; from tissue; host or cells: canine tracheal smooth muscle
Method: Hereinafter, PDE inhibitory activity and pharmacological activity of the representative Compounds (I) are described in more detail by Test Examples. Test Example 1. The inhibitory activity on PDE derived from canine tracheal smooth muscle
(1) Purification of an Enzyme
According to the method of Torphy et al. [Mol. Pharmacol., 37, 206 (1990)], PDE V (cGMP-specific PDE) was purified from canine tracheal smooth muscle.
(2) Measurement of PDE Activity
The activity was measured based on the method of Kincaid et-al. [J. D. Corbin et al., Methods Enzymol., 159, 457(1988), Academic Press, New York]. The measurement was carried out using, as a substrate, 1.0 μM [^3 H]cGMP, and the reaction was carried out in a buffer having the following composition:
50 mM N,N-bis(2-hydroxyethyl)-2-aminoethanesulfonic acid (pH 7.2), 1 mM MgCl2, 0.1 mg/ml soybean trypsin inhibitor.
The reaction was started by addition of the enzyme and stopped by addition of hydrochloric acid after reacting for 10 to 30 minutes at 30° C. Thereafter, sodium hydroxide was added for neutralization and 5'-GMP was converted into guanosine using 5'-nucleotidase. The reaction solution was subjected to DEAE-Sephadex A-25 column. [^3 H]Guano sine was eluted with distilled water and the radioactivity was measured with a liquid scintillation counter. The inhibitor was dissolved in 1.7% DMSO.

rats [3] = assay: Effect on developed cavernous pressure and duration of tumescence in rats; format: in vivo, male Sprague-Dawley rat; conditions: 20 μg/rat, injected into the cavernous body; for DCP (developed cavernous pressure), Pre / DT (duration of tumescence), Pre: before administration; for DCP (developed cavernous pressure), 6-min / DT (duration of tumescence), 6-min: six minutes after administration
Method: Test Example 3. Effect of Developed Cavernous Pressure and Duration of Tumescence in Rats
A male Sprague-Dawley rat was anesthetized with urethane (1.3 g/kg) subcutaneously injected into the back of the neck. The perineal incision was performed and the right crus of the penis was exposed. For measurement of cavernous pressure, a needle (25G) attached to a polyethylene tube (PE50) filled with a heparin solution was inserted into the right crus. The polyethylene tube was connected to a pressure transducer (MPC-500, Millar Instruments) and cavernous pressure was amplified with an amplifier (AP-621G, Nihon Kohden) and then recorded on a pen recorder (LR4220, Yokokawa Denki). The abdomen was incised and cavernous nerves on the prostate was exposed. The nerve was placed on a bipolar tungsten electrode and stimulated by current pulses(frequency; 20 Hz, duration; 0.2 ms, strength; 3 to 5 V) for 50 seconds with an electric stimulator (SEN-3201, Nihon Koden) to induce increases in cavernous pressure. The test compounds were dissolved in distilled water (DW) or 0.01 N hydrochloric acid at a concentration of 1 mg/ml and injected into the cavernous body(0.02 ml/rat) with a needle (27G). Before(Pre) and six minutes after administration (6-min). of distilled water (DW) or the test compounds, the nerve was stimulated, and developed cavernous pressure (DCP) and the duration of tumescence (DT) were measured. DT was defined as the time from the start of stimulation to 50% of the peak cavernous pressure after the end of stimulation.

For `CCn1c(=O)[nH]c2cc3c(NCc4ccc(NC)cc4)ncnc3cc21` [Compound 2, 3-Ethyl-8-(4-methylaminobenzylamino)-2,3-dihydro-1H-imidazo[4,5-g]quinazoline-2-one 2 hydrochloride], the “Hypotensive activity, Maximum lowering rate (%) of mean blood pressure” value (rats [1]) was 19.7%.
`CCn1c(=O)[nH]c2cc3c(NCc4ccc(NCc5ccccc5)cc4)ncnc3cc21` [Compound 3, 8-(4-Benzylaminobenzylamino)-3-ethyl-2,3-dihydro-1H-imidazo[4,5-g]quinazoline-2-one 2 hydrochloride] was tested, and the inhibition at 0.001 µM [2] was 62%.
`CCNc1ccc(CNc2ncnc3cc4c(cc23)[nH]c(=O)n4CC)cc1` [Compound 6, 3-Ethyl-8-(4-ethylaminobenzylamino)-2,3-dihydro-1H-imidazo[4,5-g]quinazoline-2-one 2 hydrochloride] was tested, and the inhibition at 0.001 µM [2] was 37%.
`CCn1c(=O)[nH]c2cc3c(NCc4ccccc4N4CCSCC4)ncnc3cc21` [Compound 15, 3-Ethyl-8-(2-thiomorpholinobenzylamino)-2,3-dihydro-1H-imidazo[4,5-g]quinazoline-2-one 1 hydrochloride] was tested, and the “Hypotensive activity, Maximum lowering rate (%) of mean blood pressure” value (rats [1]) was 19.8%.
In the case of `CCn1c(=S)[nH]c2cc3c(NCc4ccccc4NC)ncnc3cc21` [Compound 22, 3-Ethyl-8-(2-methylaminobenzylamino)-2,3-dihydro-1H-imidazo[4,5-g]quinazoline-2-thione 2 hydrochloride], the inhibition at 0.001 µM [2] is reported as 91%.
`CCn1c(=S)[nH]c2cc3c(NCc4ccc(NCc5ccccc5)cc4)ncnc3cc21` [Compound 24, 8-(4-Benzylaminobenzylamino)-3-ethyl-2,3-dihydro-1H-imidazo[4,5-g]quinazoline-2-thione 2 hydrochloride] was tested, and the inhibition at 0.001 µM [2] was 88%.
For `CCCNc1ccc(CNc2ncnc3cc4c(cc23)[nH]c(=S)n4CC)cc1` [Compound 26, 3-Ethyl-8-(4-propylaminobenzylamino)-2,3-dihydro-1H-imidazo[4,5-g]quinazoline-2-thione 2 hydrochloride], the “DCP (developed cavernous pressure), Pre” value (rats [3]) was 21.5 mmHg, the “DT (duration of tumescence), Pre” value (rats [3]) was 3.8 s and the “DCP (developed cavernous pressure), 6-min” value (“DCP … 6-min” for short) (rats [3]) was 27.7 mmHg. The “DT (duration of tumescence), 6-min” value (rats [3]) was 22.9 s.
In the case of `CCNc1ccc(CNc2ncnc3cc4c(cc23)[nH]c(=S)n4CC)cc1` [Compound 27, 3-Ethyl-8-(4-ethylaminobenzylamino)-2,3-dihydro-1H-imidazo[4,5-g]quinazoline-2-thione 2 hydrochloride], the inhibition at 0.001 µM [2] is reported as 97%.
With `CCn1c(=S)[nH]c2cc3c(NCc4ccccc4NCCO)ncnc3cc21` [Compound 30, 3-Ethyl-8-[2-(2-hydroxyethylamino)benzylamino]-2,3-dihydro-1H-imidazo[4,5-g]quinazoline-2-thione 2 hydrochloride] the inhibition at 0.001 µM [2] was 97%.
Compound `CCn1c(=S)[nH]c2cc3c(NCc4ccccc4N4CCOCC4)ncnc3cc21` [Compound 33, 3-Ethyl-8-(2-morpholinobenzylamino)-2,3-dihydro-1H-imidazo[4,5-g]quinazoline-2-thione 1 hydrochloride] has an inhibition at 0.001 µM [2] of 98%.
With `CCn1c(=S)[nH]c2cc3c(NCc4ccccc4N4CCC(CO)CC4)ncnc3cc21` [Compound 34, 3-Ethyl-8-[2-(4-hydroxymethylpiperidino)benzylamino]-2,3-dihydro-1H-imidazo[4,5-g]quinazoline-2-thione 2 hydrochloride] the “DCP (developed cavernous pressure), Pre” value (rats [3]) was 23.9 ± 2.0 mmHg, the “DT (duration of tumescence), Pre” value (rats [3]) was 3.3 ± 0.9 s and the “DCP … 6-min” value (rats [3]) was 31.1 ± 4.7 mmHg. The “DT (duration of tumescence), 6-min” value (rats [3]) was 16.9 ± 2.4 s and the inhibition at 0.001 µM [2] was 95%.
In the case of `CCn1c(=S)[nH]c2cc3c(NCc4ccccc4N4CCCCC4)ncnc3cc21` [Compound 35, 3-Ethyl-8-(2-piperidinobenzylamino)-2,3-dihydro-1H-imidazo[4,5-g]quinazoline-2-thione 2 hydrochloride], the “DCP (developed cavernous pressure), Pre” value (rats [3]) is reported as 22.6 mmHg, the “DT (duration of tumescence), Pre” value (rats [3]) is reported as 1.6 s and the “DCP … 6-min” value (rats [3]) is reported as 21.2 mmHg. The “DT (duration of tumescence), 6-min” value (rats [3]) was 8.1 s and the inhibition at 0.001 µM [2] was 95%.
`CCn1c(=S)[nH]c2cc3c(NCc4ccccc4N4CCN(C)CC4)ncnc3cc21` [Compound 36, 3-Ethyl-8-[2-(4-methyl-1-piperazinyl)benzylamino]-2,3-dihydro-1H-imidazo[4,5-g]quinazoline-2-thione 3 hydrochloride] was tested, and the “Hypotensive activity, Maximum lowering rate (%) of mean blood pressure” value (rats [1]) was 17.6%.
In the case of `CCn1c(=S)[nH]c2cc3c(NCc4cccc(N5CCN(C)CC5)c4)ncnc3cc21` [Compound 40, 3-Ethyl-8-[3-(4-methyl-1-piperazinyl)benzylamino]-2,3-dihydro-1H-imidazo[4,5-g]quinazoline-2-thione 3 hydrochloride], the “Hypotensive activity, Maximum lowering rate (%) of mean blood pressure” value (rats [1]) is reported as 16.1%.
